Test results taken from patent US11033559B2, “Leukocyte infiltration promoting agent and antitumor immunostimulatory agent” (OSAKA UNIVERSITY, priority 2015, dated 2021).

Experiments:
Assay type in all cases: in vivo
LLC cells = experiment: Tumor growth inhibition, subcutaneous tumor formed from LLC cells; conditions: LLC-bearing mice; LPA 3 mg/kg i.p. once daily for seven days; 5-FU 100 mg/kg i.p. once weekly, 2 times
Experimental: LLC cells (1×10^6 cells in 100 μL PBS per animal) were subcutaneously injected into C57BL/6 NCrSlc mice aged 8 weeks (females) in the same manner as in Reference Example 1. An LPA solution for administration was prepared in the same manner as in Reference Example 1. 5-FU (Kyowa Hakko Kirin Co., Ltd.) was used as an anticancer drug. 5-FU was prepared as a solution in physiological saline (Otsuka Pharmaceutical Co., Ltd.). On day 7 post-inoculation, LLC-bearing mice that had developed a tumor with a volume of 30 to 50 mm^3 were selected and subjected to the experiment. The mice were assigned to three groups: a control group, a 5-FU group and an LPA group (n=3 per group). After grouping, LPA (3 mg/kg/100 μL), 5-FU (100 mg/kg/100 μL) or PBS (100 μL) was intraperitoneally administered to the mice. The administration of LPA or PBS was performed once daily for consecutive seven days. The administration of 5-FU was performed once weekly, 2 times in total (day 7 and day 14 post-inoculation). Tumor size was measured over time after the start of the administration. Tumor volume was calculated by the following formula: length×width×height×0.5.

[1] = tested on: tumor blood vessels in LLC tumor-bearing mice; experiment: Structural changes in tumor blood vessels after administration of S1P; conditions: 0.3 mg/kg via the tail vein once daily for three days, 24 hours after final administration
Experimental: S1P, a lysophospholipid other than LPA, was examined for the ability to induce vascular network formation in the tumor as with LPA. LLC cells were subcutaneously inoculated into C57BL/6 […] mice aged 8 weeks (females, SLC, Inc.) in the same manner as in Reference Example 1. S1P (Avanti Polar Lipids, Inc.) was dissolved in PBS at 10 mM, and the solution was stored at -30° C. as a stock solution. Before use, the frozen stock solution was thawed and homogenized with an ultrasonic cleaner (SND Co., Ltd.) for 1 minute. The SIP solution was diluted in PBS to an appropriate concentration for administration at a dose of 0.3 mg/kg in […] PBS. LLC-bearing mice on day 9 post-inoculation (animals with a tumor volume of 60 to 80 mm^3) were subjected to the experiment. The mice were divided into two groups: a control group and an S1P group (n=3 per group). After grouping, S1P was administered via the tail vein to the mice of the S1P group at a dose of 0.3 mg/kg in 100 μL PBS once daily for consecutive three days including the day of grouping. For the control group, PBS (100 μL) was administered via the tail vein to the mice instead of S1P. At 24 hours after the final administration, the tumors were harvested from the mice, and specimens of tumor blood vessels were prepared in the same manner as in Reference Example 1. […]

[2] = tested on: tumor blood vessels in Lewis lung cancer (LLC) tumor-bearing mice; experiment: Structural changes in tumor blood vessels (anti-CD31 immunostaining) after administration of LPA or LPA derivative; conditions: 3 mg/kg intraperitoneally once daily for five days, tumors harvested at 6 days, anti-CD31 staining
Experimental: LPA or an LPA derivative was administered to tumor-bearing mice generated by subcutaneous inoculation of a mouse cancer cell line, and post-administration structural changes in tumor blood vessels were examined.
Lewis lung cancer cells (hereinafter called LLC cells) were used as the mouse cancer cell line. LLC cells (1×10^6 cells in 100 μL PBS per animal) were subcutaneously injected into C57BL/6 NCrSlc mice aged 8 weeks (females, SLC, Inc.).
The LPA used was 18:1 LPA (Avanti Polar Lipids, Inc.). The LPA derivative used was VPC31144S (N-{(1S)-2-hydroxy-1-[(phosphonooxy)methyl]ethyl} (9Z) octade c-9-enamide). A 10 mM LPA stock solution and a 10 mM VPC31144S stock solution were separately prepared using 50% ethanol and stored at −30° C. Before use, each of the frozen stock solutions was thawed and homogenized with an ultrasonic cleaner (SND Co., Ltd.) for 1 minute. The solution was diluted in PBS to an appropriate concentration for administration at a dose of 3 mg/kg in 100 μL PBS.
On day 9 post-inoculation, LLC-bearing mice that had developed a tumor with a volume of 60 to 80 mm^3 (volume=length×width×height×0.5) were selected and subjected to the experiment. The mice were assigned to three groups: a control group, an LPA group and a VPC31144S group. Each group consisted of three mice. […]

O=c1[nH]cc(F)c(=O)[nH]1 [5-FU, reference compound]
inhibition of tumor growth (tumor volume) versus control group (LLC cells): remarkable inhibition of tumor growth

CCCCCCCCCCCCC/C=C/[C@@H](O)[C@@H](N)COP(=O)(O)O [S1P, sphingosine-1-phosphate]
vascular network formation in the tumor [1]: induced vascular network formation in the tumor

CCCCCCCC/C=C\CCCCCCCC(=O)N[C@@H](CO)COP(=O)(O)O [VPC31144S, N-{(1S)-2-hydroxy-1-[(phosphonooxy)methyl]ethyl} (9Z) octade c-9-enamide]
network structure of tumor blood vessels [2]: a continuous network of blood vessels was formed
